System: Spinacia oleracea PM H^+-ATPase preincubated with FC/14-3-3 or TeA/14-3-3
Format: biochemical

C=CC(C)(C)OC[C@H]1O[C@H](O[C@@H]2C3=C([C@H](C)COC(C)=O)C[C@H](O)[C@]3(C)/C=C3/[C@@H](COC)CC[C@H]3[C@@H](C)[C@H]2O)[C@H](O)[C@@H](OC(C)=O)[C@@H]1O [FC, Fusicoccin]
effect on PM H^+-ATPase activity: activate
specific activity: 44.1 Pi mg^−1 protein min^−1

From PMC7187312 (The New Phytologist, 2020)
